ChEMBL document CHEMBL2311253, “Isatin replacements applied to the highly selective, muscarinic M1 PAM ML137: continued optimization of an MLPCN probe molecule” (Bioorg Med Chem Lett, 2013)
Active and inactive are the calls of the source. The calls are words filed in the database; no cut-off is given here.

What was measured:
Type in all cases: functional
[1] = target: T1, Muscarinic acetylcholine receptor M1 (Homo sapiens) (UniProt P11229); assay: Positive allosteric modulator activity at human muscarinic M1 receptor assessed as fold shift of acetylcholine concentration curve to the left at 30 uM by calcium mobilization assay relative to untreated acetylcholine control
T1 sequence (whole entry): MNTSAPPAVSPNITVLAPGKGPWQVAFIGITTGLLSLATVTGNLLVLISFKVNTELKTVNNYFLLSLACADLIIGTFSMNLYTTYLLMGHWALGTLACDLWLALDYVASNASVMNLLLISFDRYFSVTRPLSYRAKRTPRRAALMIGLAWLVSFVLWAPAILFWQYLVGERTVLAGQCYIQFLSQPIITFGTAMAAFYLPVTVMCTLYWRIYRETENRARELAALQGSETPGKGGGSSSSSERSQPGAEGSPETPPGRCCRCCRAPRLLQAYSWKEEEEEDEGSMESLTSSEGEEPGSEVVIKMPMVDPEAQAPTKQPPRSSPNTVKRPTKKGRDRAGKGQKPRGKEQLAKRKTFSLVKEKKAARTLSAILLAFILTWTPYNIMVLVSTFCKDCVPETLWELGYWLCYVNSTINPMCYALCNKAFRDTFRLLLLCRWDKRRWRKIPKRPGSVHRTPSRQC

[2] = target: T1, Muscarinic acetylcholine receptor M1 (Homo sapiens); assay: Positive allosteric modulator activity at human muscarinic M1 receptor relative to acetylcholine by calcium mobilization assay; design: concentration or dose not given beside the values
[3] = target: T2, Muscarinic acetylcholine receptor M1 (Homo sapiens, UniProt P11229); assay: Positive allosteric modulator activity at human muscarinic M1 receptor by calcium mobilization assay
T2 sequence (P11229 whole entry): T1 sequence (whole entry)

[4] = target: T1, Muscarinic acetylcholine receptor M1 (Homo sapiens); assay: Positive allosteric modulator activity at human muscarinic M1 receptor up to 30 uM by calcium mobilization assay
[5] = target: T3, Muscarinic acetylcholine receptor M4 (Homo sapiens) (UniProt P08173); assay: Positive allosteric modulator activity at human muscarinic M4 receptor by calcium mobilization assay
T3 sequence (whole entry): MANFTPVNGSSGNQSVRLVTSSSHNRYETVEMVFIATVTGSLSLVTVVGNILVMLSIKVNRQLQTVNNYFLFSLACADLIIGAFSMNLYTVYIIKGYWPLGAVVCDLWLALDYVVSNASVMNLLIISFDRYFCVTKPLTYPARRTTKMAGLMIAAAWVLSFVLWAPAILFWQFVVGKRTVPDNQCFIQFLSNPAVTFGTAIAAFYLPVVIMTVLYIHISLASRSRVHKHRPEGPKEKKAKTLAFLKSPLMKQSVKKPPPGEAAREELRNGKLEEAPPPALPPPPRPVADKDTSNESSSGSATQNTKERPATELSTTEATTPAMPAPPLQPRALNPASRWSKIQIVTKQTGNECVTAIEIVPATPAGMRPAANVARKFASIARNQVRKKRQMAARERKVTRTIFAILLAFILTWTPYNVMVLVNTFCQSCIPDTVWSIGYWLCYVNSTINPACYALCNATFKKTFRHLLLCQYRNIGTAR

Structure (SMILES)	Activity [2] [%]	EC50 [3] [µM]	Activity [4]	other results
Cn1cc(-c2ccc(CN3C(=O)C(O)(C(F)(F)F)c4ccccc43)c(F)c2)cn1 (centres undefined)			inactive	
COC1(C(F)(F)F)C(=O)N(Cc2ccc(-c3cnn(C)c3)cc2F)c2ccccc21 (racemic)			inactive	
Cn1cc(-c2ccc(Cn3c4ccccc4c4nccnc43)c(F)c2)cn1			inactive	
Cn1cc(-c2ccc(CN3C(=O)C(F)(C(F)(F)F)c4ccccc43)c(F)c2)cn1 (racemic)	25	> 10		
Cn1cc(-c2ccc(CN3CC(c4ccccc4)CC3=O)c(F)c2)cn1 (centres undefined)			inactive	
Cn1cc(-c2ccc(CN3C(=O)C(O)(C(F)(F)F)c4ccccc43)c(Cl)c2)cn1 (racemic)	29	> 10		
Cn1cc(-c2ccc(CN3CCc4ccccc43)c(F)c2)cn1			inactive	
Cn1cc(-c2ccc(Cn3c4ccccc4c4cccnc43)c(F)c2)cn1			inactive	
COc1nc2ccccc2n1Cc1ccc(-c2cnn(C)c2)cc1F			inactive	
CN(C)C1(C)C(=O)N(Cc2ccc(-c3cnn(C)c3)cc2)c2ccccc21 (racemic)	48	> 10		
Cn1cc(-c2ccc(CN3C(=O)c4cccc5cccc3c45)c(F)c2)cn1			inactive	
CCn1cc(-c2ccc(CN3C(=O)C(O)(C(F)(F)F)c4ccccc43)c(F)c2)cn1 (racemic)	37	3.3		
Cn1cc(-c2ccc(Cn3ccccc3=O)c(F)c2)cn1			inactive	
CCCn1cc(-c2ccc(CN3C(=O)C(O)(C(F)(F)F)c4ccccc43)c(F)c2)cn1 (racemic)			inactive	
CC(C)n1cc(-c2ccc(CN3C(=O)C(O)(C(F)(F)F)c4ccccc43)c(F)c2)cn1 (racemic)			inactive	
Cn1cc(-c2ccc(CN3CCSc4ccccc43)c(F)c2)cn1			inactive	
O=C1N(Cc2ccc(-c3cn[nH]c3)cc2F)c2ccccc2C1(O)C(F)(F)F (racemic)			inactive	
Cn1cc(-c2ccc(CN3c4ccccc4CS3(=O)=O)c(F)c2)cn1	41	> 10		
Cn1cc(-c2ccc(CN3C(=O)C(O)(C(F)(F)F)c4ccccc43)c(F)c2)cn1 (racemic)	51			fold change (FC) [1]: 7.4
CC(=O)N(Cc1ccc(-c2cnn(C)c2)cc1F)c1ccccc1			inactive	
Cn1cc(-c2ccc(Cn3c(=O)ccc4ccccc43)c(F)c2)cn1	51	> 10		
Cn1cc(-c2ccc(CN3C(=O)C(O)(C(F)(F)F)c4ccccc43)cc2)cn1 (racemic)	66	4		fold change (FC) [1]: 15.2
Cn1cc(-c2ccc(CN3C(=O)C(O)(C(F)(F)F)c4ccccc43)c(F)c2)cn1 (stereo in doubt; 23h)	57			fold change (FC) [1]: 12

Continued, in another order:

Activity [2] [%]	EC50 [3] [µM]	Activity [4]	Structure (SMILES)	other results
45	0.6		Cn1cc(-c2ccc(CN3C(=O)C(=O)c4ccccc43)c(F)c2)cn1	fold change (FC) [1]: 2.7
62	> 10		Cn1cc(-c2ccc(CN3C(=O)OCc4ccccc43)c(F)c2)cn1	
		inactive	Cn1cc(-c2ccc(CN3C(=O)CCCc4ccccc43)c(F)c2)cn1	
46	> 10		Cn1cc(-c2ccc(CN3C(=O)C[S+]([O-])c4ccccc43)c(F)c2)cn1 (centres undefined)	
53	> 10		Cn1cc(-c2ccc(CN3C(=O)NCc4ccccc43)c(F)c2)cn1	
49	> 10		Cn1cc(-c2ccc(CN3C(=O)C(C)(O)c4ccccc43)c(F)c2)cn1 (racemic)	fold change (FC) [1]: 6.5
53	> 10		CC1C(=O)N(Cc2ccc(-c3cnn(C)c3)cc2F)c2ccccc21 (racemic)	
50	1.3		Cn1cc(-c2ccc(CN3C(=O)C(N)c4ccccc43)c(F)c2)cn1 (racemic)	
52	5.2		Cn1cc(-c2ccc(CN3C(=O)COc4ccccc43)c(F)c2)cn1	
36	> 10		Cn1cc(-c2ccc(CN3C(=O)CS(=O)(=O)c4ccccc43)c(F)c2)cn1	
59	> 10		Cn1cc(-c2ccc(CN3C(=O)C(O)(CF)c4ccccc43)c(F)c2)cn1 (racemic)	fold change (FC) [1]: 8
30	3.2		Cn1cc(-c2ccc(CN3C(=O)CSc4ccccc43)c(F)c2)cn1	
64	2.4		Cn1cc(-c2ccc(CN3C(=O)Cc4ccccc43)c(F)c2)cn1	Activity [5]: Active; fold change (FC) [1]: 27.2
44	5.6		Cn1cc(-c2ccc(CN3C(=O)CCc4ccccc43)c(F)c2)cn1	
		inactive	Cn1cc(-c2ccc(CN3C(=O)C(F)(F)c4ccccc43)c(F)c2)cn1	
		inactive	Cn1cc(-c2ccc(Cn3c(=O)[nH]c4ccccc43)c(F)c2)cn1	
28	> 10		Cn1cc(-c2ccc(CN3C(=O)C(C)(N)c4ccccc43)c(F)c2)cn1 (racemic)	
